Data published in patent US7354737B2, “Biomolecule transduction motif Sim-2-BTM and the use thereof” (ForHumanTech Co., Ltd., priority 2002, dated 2008).

Legend:
[1] = tested on: HUVEC, HeLa, 293 and Jurkat cells; test: Transduction of fusion protein across cell membrane, β-galactosidase staining and microscopy; type: cell-based; conditions: 0.5 μM, 30 min, 37° C., HeLa, 293, Jurkat cells
Experimental: HUVEC (ATCC:CRL-1730) (2×10^5), HeLa (ATCC:CCL-2) (2×10^5), and 293 (ATCC:CRL-1573) (2×10^5), which were incubated in 10% FBS (Fetal Bovine Serum) of DMEM, were respectively transferred to Lab-tek II chamber slides. Jurkat cells (ATCC:CRL-10915) (2×10^5) incubated in 10% FBS RPMI were transferred to poly-L-lysin coated slide. Each of the slides was treated with the purified 0.5 μM of Sim-2-β-galactosidase for 30 min at 37° C. in 5% CO2 incubator. And the supernatants were removed from the slides. The incubation mixtures were washed using ice-cold PBS four times and then were solidified with 2% formaldehyde solution for 10 min. After removing the solidified solutions, the mixtures were washed again using ice-cold PBS four times. Subsequently, the respective mixtures were treated with 700 μl of β-galactosidase staining solution (Roche. Co.) for 45 min at 37° C. in 5% CO2 incubator. Following the staining, the mixtures were washed with ice-cold PBS four times after removing the supernatants. Next, the mixtures were mounted with 70% glycerol on the microscope slides.

Jurkat T cells = test: Transduction of insulin fusion proteins, detected using mAb to insulin; type: cell-based; conditions: detected with mAb to insulin
Excerpt: A fusion protein of Sim-2 BTM and biologically active functional regulatory protein, which was expressed and purified from bacteria, was reformed so as to have natural folding structure and functions. Specifically, the fusion protein isolated and purified from bacteria was transferred again into CHO (Chinese hamster ovary) cells, and then the fusion protein, which had complete folding structure and functions found in natural state, was isolated and purified. As for purified 2 (two) types of fusion proteins, biological activity regulating capabilities were examined. For this examination, an expression vector pSim-2-insulin was designed in order to prepare fusion protein between Sim-2 BTM and human insulin. In order to make this expression vector, a 5′ primer of SEQ. ID No.:17 comprising nucleic acid sequence of Xba I restriction enzyme, nucleic acid sequence of Sim-2 BTM and N-terminal nucleic acid sequence of human insulin, and a 3′ primer of SEQ. ID No.:18 comprising nucleic acid sequence of Hind m and C-terminal nucleic acid sequence of human insulin were prepared. Then, PCR amplification was carried out using human pancreas beta cells prepared in our laboratory, as a template, and using the primers above mentioned. […] Following the treatment, the transduction level of insulin into the cells was detected using mAb to the insulin and was compared.

[2] = tested on: Streptozotocin-Induced diabetic mice; test: Blood glucose level lowering in Streptozotocin-Induced diabetic mice; type: in vivo; conditions: IP injection (1-10 mM)
Experimental: Blood glucose level lowering was examined using Sim-2-insulin and Sim-2-insulin-PR in the Example 13 with Streptozotocin-Induced diabetic mice. After 3 (three) days of abstinence, STZ (Sigma Chemical Co, St Louis, USA) (60 mg/kg) were […]. Insulin dependent diabetic mice were defined having 20 mmol/L or more blood glucose level together with other diabetic syndrome such as polyurea etc. All the in vivo studies were carried out after 2 weeks from the induction of diabetes. Recombinant insulin alone, Sim-2-insulin and Sim-2-insulin-PR in the Example 13 were, respectively, administered to the mice by IP injection (1-10 mM), and the blood glucose levels in the mice were monitored. In order to analyze the level of blood glucose, about 0.2 ml of blood was collected from each of the mice after anesthetizing them, and then the blood was subject to centrifuge at 13,000 rpm for 3 min. Next, about […] of serum was added to 1.5 ml of glucose kit agent (BiosystemSA, Barcelona, Spain) and the mixture was incubated at 37° C. for 10 min in water-bath. The level of blood glucose was detected with blood glucose analyzer (Quik-Lab, Ames, Miles Inc. Elkart, Ind., USA).

Substance | transduction across the cell membranes (β-galactosidase staining) [1] | transduction level of insulin into Jurkat T cells (Jurkat T cells) | blood glucose level, After administration ([2]; after administration) | blood glucose level, Before administration ([2]; before administration) | lowering of blood glucose level ([2]; from Table 3)
β-gal: β-galactosidase reporter protein not fused to Sim-2 | not transduced at all |  |  |  | 
Recombinant insulin: recombinant insulin not fused to Sim-2 BTM |  | almost none | 2320 | 5600 | 50%
